“And” between values parts separate entries of the source, which are not always exact repeats. Equal values may be shown once.
Experiment: Gemcitabine plasma pharmacokinetics in Slc28a1+/+ and Slc28a1-/- mice
Details: Gem-TP in plasma, single intravenous dose of gemcitabine 50mg/kg, individual mice

## Nc1ccn([C@@H]2O[C@H](COP(=O)(O)OP(=O)(O)OP(=O)(O)O)[C@@H](O)C2(F)F)c(=O)n1 [Gem-TP]
KO (Slc28a1-/-) mice
  AUCINF_D_obs: 509.381 kg·ng·min/mL/mg and 272.158 kg·ng·min/mL/mg and 1500.18 kg·ng·min/mL/mg and 597.23 kg·ng·min/mL/mg and 1529.97 kg·ng·min/mL/mg and 1749.53 kg·ng·min/mL/mg
  AUCINF_D_pred: 476.443 kg·ng·min/mL/mg and 251.621 kg·ng·min/mL/mg and 1436.01 kg·ng·min/mL/mg and 561.179 kg·ng·min/mL/mg and 1459.25 kg·ng·min/mL/mg and 1679.11 kg·ng·min/mL/mg
  AUCINF_obs: 25469 ng·min/mL and 13607.9 ng·min/mL and 75008.8 ng·min/mL and 29861.5 ng·min/mL and 76498.5 ng·min/mL and 87476.7 ng·min/mL
  AUCINF_pred: 23822.1 ng·min/mL and 12581.1 ng·min/mL and 71800.6 ng·min/mL and 28058.9 ng·min/mL and 72962.4 ng·min/mL and 83955.6 ng·min/mL
  AUC_%Back_Ext_obs: 0.5829% and 5.828% and 0.4312% and 2.002% and 0.5682% and 0.06111%
  AUC_%Back_Ext_pred: 0.6232% and 6.304% and 0.4505% and 2.131% and 0.5957% and 0.06367%
  AUC_%Extrap_obs: 67.4874% and 53.7747% and 79.3116% and 67.9349% and 78.2847% and 81.1285%
  AUC_%Extrap_pred: 65.2397% and 50.0019% and 78.3872% and 65.875% and 77.2323% and 80.3371%
  AUCall: 8280.65 ng·min/mL and 6290.29 ng·min/mL and 15518.1 ng·min/mL and 9575.11 ng·min/mL and 16611.9 ng·min/mL and 16508.1 ng·min/mL
  AUClast: 8280.65 ng·min/mL and 6290.29 ng·min/mL and 15518.1 ng·min/mL and 9575.11 ng·min/mL and 16611.9 ng·min/mL and 16508.1 ng·min/mL
  AUClast_D: 165.613 kg·ng·min/mL/mg and 125.806 kg·ng·min/mL/mg and 310.363 kg·ng·min/mL/mg and 191.502 kg·ng·min/mL/mg and 332.237 kg·ng·min/mL/mg and 330.163 kg·ng·min/mL/mg
  AUMCINF_obs: 14271006 min*min*ng/mL and 5009676 min*min*ng/mL and 73111057 min*min*ng/mL and 17625971 min*min*ng/mL and 70582595 min*min*ng/mL and 93013834 min*min*ng/mL
  AUMCINF_pred: 12992303 min*min*ng/mL and 4388328 min*min*ng/mL and 69264936 min*min*ng/mL and 16149841 min*min*ng/mL and 66527378 min*min*ng/mL and 88496254 min*min*ng/mL
  AUMC_%Extrap_obs: 93.5147% and 88.3871% and 97.5522% and 94.251% and 97.3007% and 97.8918%
  AUMC_%Extrap_pred: 92.8764% and 86.7428% and 97.4162% and 93.7255% and 97.1361% and 97.7841%
  AUMClast: 925521 min*min*ng/mL and 581771 min*min*ng/mL and 1789646 min*min*ng/mL and 1013321 min*min*ng/mL and 1905271 min*min*ng/mL and 1960946 min*min*ng/mL
  Cl_pred: 2098.89 mL/min/kg and 3974.23 mL/min/kg and 696.373 mL/min/kg and 1781.96 mL/min/kg and 685.285 mL/min/kg and 595.553 mL/min/kg
  Clast: 32.0426 ng/mL and 20.0426 ng/mL and 62.0426 ng/mL and 35.0426 ng/mL and 66.0426 ng/mL and 68.0426 ng/mL
  Clast_pred: 28.9724 ng/mL and 17.2301 ng/mL and 58.6968 ng/mL and 31.9288 ng/mL and 62.1429 ng/mL and 64.6666 ng/mL
  Cmax: 49.2745 ng/mL and 91.6911 ng/mL and 79.2745 ng/mL and 88.6911 ng/mL and 85.6911 ng/mL and 85.2745 ng/mL
  Cmax_D: 0.9855 kg·ng/mL/mg and 1.834 kg·ng/mL/mg and 1.585 kg·ng/mL/mg and 1.774 kg·ng/mL/mg and 1.714 kg·ng/mL/mg and 1.705 kg·ng/mL/mg
  HL_Lambda_z: 371.821 min and 253.07 min and 664.637 min and 401.268 min and 628.538 min and 722.954 min
  Lambda_z: 0.001864 min⁻¹ and 0.002739 min⁻¹ and 0.001043 min⁻¹ and 0.001727 min⁻¹ and 0.001103 min⁻¹ and 0.0009588 min⁻¹
  MRTINF_obs: 9.33878 h and 6.13575 h and 16.24 h and 9.83763 h and 15.3778 h and 17.722 h
  MRTINF_pred: 9.0898 h and 5.81342 h and 16.0781 h and 9.59282 h and 15.1967 h and 17.568 h
  MRTlast: 1.86282 h and 1.54145 h and 1.9221 h and 1.76382 h and 1.91155 h and 1.97978 h
  Tlast: 240 min
  Tmax: 0.167 h and 0.083 h
  Vss_obs: 1100.017 L/kg and 1352.688 L/kg and 649.724 L/kg and 988.326 L/kg and 603.062 L/kg and 607.76 L/kg
  Vss_pred: 1144.708 L/kg and 1386.23 L/kg and 671.779 L/kg and 1025.643 L/kg and 624.846 L/kg and 627.762 L/kg
  Vz_obs: 1053.09 L/kg and 1341.512 L/kg and 639.17 L/kg and 969.32 L/kg and 592.684 L/kg and 596.16 L/kg
  Vz_pred: 1125.894 L/kg and 1451.004 L/kg and 667.729 L/kg and 1031.591 L/kg and 621.408 L/kg and 621.163 L/kg
WT (Slc28a1+/+) mice
  AUCINF_D_obs: 627.983 kg·ng·min/mL/mg and 293.244 kg·ng·min/mL/mg and 2095.28 kg·ng·min/mL/mg and 746.583 kg·ng·min/mL/mg and 2357.3 kg·ng·min/mL/mg and 2481.13 kg·ng·min/mL/mg
  AUCINF_D_pred: 611.177 kg·ng·min/mL/mg and 283.996 kg·ng·min/mL/mg and 2059.29 kg·ng·min/mL/mg and 727.87 kg·ng·min/mL/mg and 2318.74 kg·ng·min/mL/mg and 2441.28 kg·ng·min/mL/mg
  AUCINF_obs: 31399.2 ng·min/mL and 14662.2 ng·min/mL and 104764 ng·min/mL and 37329.2 ng·min/mL and 117865 ng·min/mL and 124056 ng·min/mL
  AUCINF_pred: 30558.9 ng·min/mL and 14199.8 ng·min/mL and 102964 ng·min/mL and 36393.5 ng·min/mL and 115937 ng·min/mL and 122064 ng·min/mL
  AUC_%Back_Ext_obs: 0.6002% and 4.658% and 0.3469% and 1.514% and 0.3975% and 0.07533%
  AUC_%Back_Ext_pred: 0.6167% and 4.81% and 0.353% and 1.5528% and 0.4041% and 0.07656%
  AUC_%Extrap_obs: 74.9814% and 61.0207% and 85.5932% and 75.6831% and 86.2719% and 87.0356%
  AUC_%Extrap_pred: 74.2934% and 59.7514% and 85.3414% and 75.0579% and 86.0436% and 86.824%
  AUCall: 7855.65 ng·min/mL and 5715.22 ng·min/mL and 15093.1 ng·min/mL and 9077.31 ng·min/mL and 16180.6 ng·min/mL and 16083.1 ng·min/mL
  AUClast: 7855.65 ng·min/mL and 5715.22 ng·min/mL and 15093.1 ng·min/mL and 9077.31 ng·min/mL and 16180.6 ng·min/mL and 16083.1 ng·min/mL
  AUClast_D: 157.113 kg·ng·min/mL/mg and 114.304 kg·ng·min/mL/mg and 301.863 kg·ng·min/mL/mg and 181.546 kg·ng·min/mL/mg and 323.613 kg·ng·min/mL/mg and 321.663 kg·ng·min/mL/mg
  AUMCINF_obs: 25618307 min*min*ng/mL and 7382666 min*min*ng/mL and 159455048 min*min*ng/mL and 32660009 min*min*ng/mL and 190278277 min*min*ng/mL and 207071348 min*min*ng/mL
  AUMCINF_pred: 24735428 min*min*ng/mL and 7028934 min*min*ng/mL and 156289942 min*min*ng/mL and 31610468 min*min*ng/mL and 186705642 min*min*ng/mL and 203285848 min*min*ng/mL
  AUMC_%Extrap_obs: 96.5565% and 92.707% and 98.9048% and 97.0301% and 99.0215% and 99.0739%
  AUMC_%Extrap_pred: 96.4336% and 92.3399% and 98.8827% and 96.9315% and 99.0028% and 99.0567%
  AUMClast: 882171 min*min*ng/mL and 538421 min*min*ng/mL and 1746296 min*min*ng/mL and 969971 min*min*ng/mL and 1861921 min*min*ng/mL and 1917596 min*min*ng/mL
  Cl_pred: 1636.19 mL/min/kg and 3521.18 mL/min/kg and 485.605 mL/min/kg and 1373.87 mL/min/kg and 431.268 mL/min/kg and 409.621 mL/min/kg
  Clast: 29.0426 ng/mL and 17.0426 ng/mL and 59.0426 ng/mL and 32.0426 ng/mL and 63.0426 ng/mL and 65.0426 ng/mL
  Clast_pred: 28.006 ng/mL and 16.1618 ng/mL and 57.8576 ng/mL and 30.9814 ng/mL and 61.8472 ng/mL and 63.8424 ng/mL
  Cmax: 69.2745 ng/mL and 99.6911 ng/mL and 99.2745 ng/mL and 96.6911 ng/mL and 103.275 ng/mL and 105.275 ng/mL
  Cmax_D: 1.385 kg·ng/mL/mg and 1.994 kg·ng/mL/mg and 1.985 kg·ng/mL/mg and 1.934 kg·ng/mL/mg and 2.065 kg·ng/mL/mg and 2.105 kg·ng/mL/mg
  HL_Lambda_z: 561.904 min and 363.887 min and 1052.72 min and 611.146 min and 1118.01 min and 1150.65 min
  Lambda_z: 0.001234 min⁻¹ and 0.001905 min⁻¹ and 0.0006584 min⁻¹ and 0.001134 min⁻¹ and 0.00062 min⁻¹ and 0.0006024 min⁻¹
  MRTINF_obs: 13.5982 h and 8.39195 h and 25.3673 h and 14.582 h and 26.9062 h and 27.8195 h
  MRTINF_pred: 13.4906 h and 8.25005 h and 25.298 h and 14.4762 h and 26.84 h and 27.757 h
  MRTlast: 1.87163 h and 1.57014 h and 1.92835 h and 1.78095 h and 1.91785 h and 1.9872 h
  Tlast: 240 min
  Tmax: 0.167 h and 0.083 h
  Vss_obs: 1299.224 L/kg and 1717.058 L/kg and 726.413 L/kg and 1171.898 L/kg and 684.839 L/kg and 672.746 L/kg
  Vss_pred: 1324.388 L/kg and 1742.993 L/kg and 737.1 L/kg and 1193.31 L/kg and 694.517 L/kg and 682.183 L/kg
  Vz_obs: 1290.887 L/kg and 1790.244 L/kg and 724.843 L/kg and 1180.977 L/kg and 684.235 L/kg and 669.067 L/kg
  Vz_pred: 1326.384 L/kg and 1848.542 L/kg and 737.512 L/kg and 1211.34 L/kg and 695.614 L/kg and 679.987 L/kg

From article PMC10235067, “Increased renal elimination of endogenous and synthetic pyrimidine nucleosides in concentrative nucleoside transporter 1 deficient mice” (Nature Communications, 2023)
